Assay results taken from the supplement of paper PMC11061612.

What was measured:
Assay in all cases: combination Emax (second highest fraction inhibited in the dose matrix, 72 h); higher = more inhibition; extreme values may be limits of the assay
[1] = tested on: BHT-101 (Thyroid Gland Carcinoma)
Outline: (§1)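 Cell lines grown in DMEM/F12 or RPMI with 10% FBS were plated in 1536-well plates and held 24 hours at 37°C, 5% CO2 before 72 hours of exposure to two-drug dose matrices, with DMSO typically at 0.2%. CellTiter-Glo 2.0 luminescence gave viability, which was converted to inhibition. Vehicle wells were set to 0 and blank wells to 1. Combination Emax is the second-highest inhibition in the matrix, and Bliss excess is the observed combination effect minus the expected EA + EB − EA·EB, where EA and EB are the single-agent effects.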

[2] = tested on: LS-1034 (Colorectal Carcinoma)
Outline: as §1

[3] = tested on: CPC-N (Small Cell Lung Carcinoma)
Outline: as §1

[4] = tested on: BxPC-3 (Pancreatic Carcinoma)
Outline: as §1

[5] = tested on: NCI-H596 (Other Solid Carcinomas)
Outline: as §1

[6] = tested on: OVCAR-3 (Ovarian Carcinoma)
Outline: as §1

NCI-H2373 (Mesothelioma) = tested on: NCI-H2373 (Mesothelioma)
Outline: as §1

ES6 (Ewing's Sarcoma) = tested on: ES6 (Ewing's Sarcoma)
Outline: as §1

[7] = tested on: SNU-407 (Colorectal Carcinoma)
Outline: as §1

[8] = tested on: SUP-M2 (T-Cell Non-Hodgkin's Lymphoma)
Outline: as §1

SK-N-SH (Neuroblastoma) = tested on: SK-N-SH (Neuroblastoma)
Outline: as §1

[9] = tested on: DBTRG-05MG (Glioblastoma)
Outline: as §1

[10] = tested on: IA-LM (Non-Small Cell Lung Carcinoma)
Outline: as §1

[11] = tested on: TUR (Acute Myeloid Leukemia)
Outline: as §1

T47D (Breast Carcinoma) = tested on: T47D (Breast Carcinoma)
Outline: as §1

[12] = tested on: MONO-MAC-6 (Acute Myeloid Leukemia)
Outline: as §1

[13] = tested on: SCC-4 (Oral Cavity Carcinoma)
Outline: as §1

[14] = tested on: OAW-28 (Ovarian Carcinoma)
Outline: as §1

[15] = tested on: T84 (Colorectal Carcinoma)
Outline: as §1

[16] = tested on: P32-ISH (Burkitt's Lymphoma)
Outline: as §1

Compound | combination Emax [1] | combination Emax [2] | combination Emax [3] | combination Emax [4] | combination Emax [5] | combination Emax [6] | combination Emax (NCI-H2373 (Mesothelioma)) | combination Emax (ES6 (Ewing's Sarcoma)) | combination Emax [7] | combination Emax [8] | combination Emax (SK-N-SH (Neuroblastoma)) | combination Emax [9] | combination Emax [10] | combination Emax [11] | combination Emax (T47D (Breast Carcinoma)) | combination Emax [12] | combination Emax [13] | combination Emax [14] | combination Emax [15] | combination Emax [16]
CN(C)CCCOc1ccc(-c2ccc3ncc4c(c3c2)n(C2CCOCC2)c(=O)n4C)cn1 [AZD0156] + C=CCn1c(=O)c2cnc(Nc3ccc(N4CCN(C)CC4)cc3)nc2n1-c1cccc(C(C)(C)O)n1 [AZD1775] (first compound max 1 µM, partner max 1 µM) | 0.423 | 0.289 | 0.972 | 0.457 | 0.307 | 0.32 | 0.408 | 0.306 | 0.358 | 1 | 0.799 | 0.175 | 0.231 | 0.772 | 0.343 | 0.886 | 0.526 | 0.27 | 0.556 | 0.995
CN(C)CCCOc1ccc(-c2ccc3ncc4c(c3c2)n(C2CCOCC2)c(=O)n4C)cn1 [AZD0156] + CCN(CCO)CCCOc1ccc2c(Nc3cc(CC(=O)Nc4cccc(F)c4)[nH]n3)ncnc2c1 [AZD2811] (first compound max 1 µM, 7x7, partner max 1 µM) | 0.203 | 0.108 | 0.794 | 0.101 | 0.207 | 0.105 | 0.354 | 0.176 | 0.287 | 0.94 | 0.479 | 0.154 | 0.0974 | 0.218 | 0.282 | 0.743 | 0.336 | 0.175 | 0.023 | 0.962
COc1nnc2ccc(N3CCC(c4ccc(OCCN5CCN(C)C(=O)[C@H]5C)cc4)CC3)nn12 [AZD5153] + CN(CC[C@H](CSC1=CC=CC=C1)NC2=C(C=C(C=C2)S(=O)(=O)NC(=O)C3=CC=C(C=C3)N4CCC(CC4)[C@H](C5=CC=CC=C5C6=CC=C(C=C6)Cl)O)S(=O)(=O)C(F)(F)F)CCO [AZD4320] (first compound max 1 µM, 7x7, partner max 1 µM) | 0.737 | – | – | – | 0.823 | 0.601 | 0.511 | – | 0.902 | 0.986 | – | 0.399 | – | 0.626 | 0.472 | – | – | 1 | – | 0.68
Cc1c2c(nn1C)CSCc1cc(n(C)n1)CSc1cc(c3ccccc3c1)OCCCc1c(C(=O)O)n(C)c3c-2c(Cl)ccc13 [AZD5991] + CCN(CCO)CCCOc1ccc2c(Nc3cc(CC(=O)Nc4cccc(F)c4)[nH]n3)ncnc2c1 [AZD2811] (first compound max 1 µM, 7x7, partner max 1 µM) | 0.267 | 0.227 | 0.835 | 0.269 | – | 0.378 | 0.267 | 0.29 | 0.694 | 1 | 0.614 | 0.225 | 0.296 | 0.536 | 0.708 | 1 | 0.663 | 0.378 | 0.177 | 1
CC(=O)c1c(C)c2cnc(Nc3ccc(N4CCNCC4)cn3)nc2n(C2CCCC2)c1=O [Palbociclib] + CN(CC[C@H](CSC1=CC=CC=C1)NC2=C(C=C(C=C2)S(=O)(=O)NC(=O)C3=CC=C(C=C3)N4CCC(CC4)[C@H](C5=CC=CC=C5C6=CC=C(C=C6)Cl)O)S(=O)(=O)C(F)(F)F)CCO [AZD4320] (first compound max 10 µM, 7x7, partner max 1 µM) | 0.598 | – | – | – | 0.521 | 0.204 | 0.223 | – | 0.483 | 0.897 | – | 0.529 | – | 0.381 | 0.344 | – | – | 0.889 | – | 0.735
CCc1c2c(nc3ccc(O)cc13)-c1cc3c(c(=O)n1C2)COC(=O)[C@]3(O)CC [SN-38] + O=C(c1cc(Cc2n[nH]c(=O)c3ccccc23)ccc1F)N1CCN(C(=O)C2CC2)CC1 [Olaparib] (first compound max 0.3 µM, 7x7, partner max 10 µM) | – | 0.553 | 0.392 | 0.59 | – | 0.687 | 0.801 | 0.618 | – | 1 | 0.959 | 0.407 | 0.878 | 0.994 | 0.625 | 1 | 0.847 | – | 0.528 | 1
C[C@@H](c1ccc2nccn2c1)n1nnc2ncc(-c3cnn(C)c3)nc21 [Savolitinib] + CN(CC[C@H](CSC1=CC=CC=C1)NC2=C(C=C(C=C2)S(=O)(=O)NC(=O)C3=CC=C(C=C3)N4CCC(CC4)[C@H](C5=CC=CC=C5C6=CC=C(C=C6)Cl)O)S(=O)(=O)C(F)(F)F)CCO [AZD4320] (first compound max 1 µM, 7x7, partner max 1 µM) | 0.176 | – | – | – | 0.275 | 0.131 | 0.0896 | – | 0.722 | 0.287 | – | 0.439 | – | 0.135 | 0.252 | – | – | 0.903 | – | 0.165
